This is an account of results in PubChem BioAssay AID1259411 (Chemical Carcinogenesis Research Information System (CCRIS), 2018).

The data set deals with rodent carcinogenicity bioassays, tumor incidence. In words: CCRIS carcinogenicity studies. Conditions: Dose: 0, Dose: 0. The procedure, abridged: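 Archive of carcinogenicity, mutagenicity, tumor promotion and tumor inhibition results drawn from journals, NCI reports and other sources, expert-reviewed; covers 1985-2011 and is no longer updated.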

Structures are written as SMILES. The source made the active and inactive calls. How the calls were made is not given here.

As for `CCOP(=O)(SC(C)CC)N1CCSC1=O` (configuration not stated), the carcinogen call is “inactive; negative” (Species: Mouse, Strain/Sex: CD-1/Female (60/Group), Route: Oral, 1.11, 3.20, 10.4, 39.2 mg/kg/day of 93.3% fosthiazate in diet for 104 wk, study duration 102 wk, 1.11, 3.20, 10.4, 39.2 mg/kg/day of 93.3% fosthiazate in diet for 104 wk, study duration 102 wk); “inactive; negative” (Species: Mouse, Strain/Sex: CD-1/Male (60/Group), Route: Oral, 1.02, 3.10, 10.3, 30.5 mg/kg/day of 93.3% fosthiazate in diet for 104 wk, study duration 102 wk, 1.02, 3.10, 10.3, 30.5 mg/kg/day of 93.3% fosthiazate in diet for 104 wk, study duration 102 wk); “inactive; negative” (Species: Rat, Strain/Sex: CD/Female (50/Group), Route: Oral, 0.051, 0.50, 2.45, 11.69 mg/kg/day of 93.3% fosthiazate in diet for 104 wk, study duration 104 wk, 0.051, 0.50, 2.45, 11.69 mg/kg/day of 93.3% fosthiazate in diet for 104 wk, study duration 104 wk); “inactive; negative” (Species: Rat, Strain/Sex: CD/Male (50/Group), Route: Oral, 0.039, 0.38, 1.94, 8.34 mg/kg/day of 93.3% fosthiazate in diet for 104 wk, study duration 104 wk, 0.039, 0.38, 1.94, 8.34 mg/kg/day of 93.3% fosthiazate in diet for 104 wk, study duration 104 wk).
As to `O=C(O)COc1ccc(Cl)cc1Cl` (tested in a mixture with another compound), the carcinogen call by setting is: (Species: MOUSE, Strain/Sex: B6C3F1/FEMALE, Route: DERMAL, 100, 200 MG/KG BW IN ETHANOL 5/WK FOR 104 WK (STUDY DURATION: 104 WK), 100, 200 MG/KG BW IN ETHANOL 5/WK FOR 104 WK (STUDY DURATION: 104 WK), Tumor Site: Type of Lesion: LIVER: HEPATOCELLULAR ADENOMA, HEPATOCELLULAR CARCINOMA, HEPATOCELLULAR ADENOMA OR CARCINOMA OR HEPATOBLASTOMA) “active; positive”; (Species: MOUSE, Strain/Sex: B6C3F1/MALE, Route: DERMAL, 100, 200 MG/KG BW IN ETHANOL 5/WK FOR 104 WK (STUDY DURATION: 104 WK), 100, 200 MG/KG BW IN ETHANOL 5/WK FOR 104 WK (STUDY DURATION: 104 WK), Tumor Site: Type of Lesion: KIDNEY: RENAL TUBULE ADENOMA, RENAL TUBULE ADENOMA OR CARCINOMA, LIVER: HEPATOCELLULAR ADENOMA, HEPATOCELLULAR CARCINOMA) “active; positive”; (Species: RAT, Strain/Sex: F344/FEMALE, Route: DERMAL, 50, 100 MG/KG BW IN ETHANOL 5/WK FOR 104 WK (STUDY DURATION: 104 WK), 50, 100 MG/KG BW IN ETHANOL 5/WK FOR 104 WK (STUDY DURATION: 104 WK), Tumor Site: Type of Lesion: KIDNEY: RENAL TUBULE ADENOMA OR CARCINOMA) “equivocal”; (Species: RAT, Strain/Sex: F344/MALE, Route: DERMAL, 50, 100 MG/KG BW IN ETHANOL 5/WK FOR 104 WK (STUDY DURATION: 104 WK), 50, 100 MG/KG BW IN ETHANOL 5/WK FOR 104 WK (STUDY DURATION: 104 WK)) “inactive; negative”.
As for `O=[N+]([O-])c1ccc2ccc3c4ccccc4ccc3c2c1`, the carcinogen call is, setting by setting: (Species: MOUSE, Strain/Sex: ICR/FEMALE, Route: INTRAPERITONEAL, 100 NMOL (TOTAL DOSE) ADMINISTERED IN 3 SUBDOSES OF 1/7, 2/7, AND 4/7 ON DAYS 1, 8 AND 15 OF LIFE, RESPECTIVELY (STUD) “inactive; negative”; (Species: MOUSE, Strain/Sex: ICR/MALE, Route: INTRAPERITONEAL, 100 NMOL (TOTAL DOSE) ADMINISTERED IN 3 SUBDOSES OF 1/7, 2/7, AND 4/7 ON DAYS 1, 8 AND 15 OF LIFE, RESPECTIVELY (STUD) “inactive; negative”.
Turning to `C[C@@H]1CCC[C@H](C)N1CCC[C@@](O)(c1ccccc1)c1ccccn1`, the carcinogen call was “inactive; negative” (Species: MOUSE, Strain/Sex: B6C3F1/FEMALE, Route: ORAL, 10, 25, 50 MG/KG/D IN DIET FOR 104 WK (STUDY DURATION: 104 WK), 10, 25, 50 MG/KG/D IN DIET FOR 104 WK (STUDY DURATION: 104 WK)); “inactive; negative” (Species: MOUSE, Strain/Sex: B6C3F1/MALE, Route: ORAL, 10, 25, 50 MG/KG/D IN DIET FOR 104 WK (STUDY DURATION: 104 WK), 10, 25, 50 MG/KG/D IN DIET FOR 104 WK (STUDY DURATION: 104 WK)); “inactive; negative” (Species: RAT, Strain/Sex: WISTAR/FEMALE, Route: ORAL, 10, 25, 50 MG/KG/D IN DIET FOR 104 WK (STUDY DURATION: 104 WK), 10, 25, 50 MG/KG/D IN DIET FOR 104 WK (STUDY DURATION: 104 WK)); “inactive; negative” (Species: RAT, Strain/Sex: WISTAR/MALE, Route: ORAL, 10, 25, 50 MG/KG/D IN DIET FOR 104 WK (STUDY DURATION: 104 WK), 10, 25, 50 MG/KG/D IN DIET FOR 104 WK (STUDY DURATION: 104 WK)).
For `O=CC(O)C(O)C(O)C(O)COC1OC(COC2OC(CO)C(O)C(O)C2O)C(O)C(O)C1O` (configuration not stated), the carcinogen call runs as follows: (Species: RAT, Strain/Sex: ACI/FEMALE, Route: ORAL, 2.5% (MOL. WT. 21500) IN DIET FOR 480 D (STUDY DURATION: 480 D)) “inactive; negative”; (Species: RAT, Strain/Sex: ACI/MALE, Route: ORAL, 2.5% (MOL. WT. 21500) IN DIET FOR 480 D (STUDY DURATION: 480 D)) “inactive; negative”.
As for `c1ccc2c3c4c(cccc4cc2c1)CC3`, the carcinogen call (Species: MOUSE, Strain/Sex: BLU:HA/FEMALE, Route: INTRAPERITONEAL, 175 UG/KG/D ON DAYS 1 (1/7 TOTAL DOSE), 8 (2/7 TOTAL DOSE), AND 15 (4/7 TOTAL DOSE) AFTER BIRTH (STUDY DURATION: 9 MO) is “inactive; negative”; the carcinogen call (Species: MOUSE, Strain/Sex: BLU:HA/MALE, Route: INTRAPERITONEAL, 175 UG/KG/D ON DAYS 1 (1/7 TOTAL DOSE), 8 (2/7 TOTAL DOSE), AND 15 (4/7 TOTAL DOSE) AFTER BIRTH (STUDY DURATION: 9 MO) was “inactive; negative”; the carcinogen call (Species: MOUSE, Strain/Sex: CD-1/FEMALE, Route: INTRAPERITONEAL, 175, 437.5, 875 UG/KG/D ON DAYS 1 (1/7 TOTAL DOSE), 8 (2/7 TOTAL DOSE), AND 15 (4/7 TOTAL DOSE) AFTER BIRTH (STUDY DU, 175, 437.5, 875 UG/KG/D ON DAYS 1 (1/7 TOTAL DOSE), 8 (2/7 TOTAL DOSE), AND 15 (4/7 TOTAL DOSE) AFTER BIRTH (STUDY DU) was “inactive; negative”; the carcinogen call (Species: MOUSE, Strain/Sex: CD-1/MALE, Route: INTRAPERITONEAL, 175, 437.5, 875 UG/KG/D ON DAYS 1 (1/7 TOTAL DOSE), 8 (2/7 TOTAL DOSE), AND 15 (4/7 TOTAL DOSE) AFTER BIRTH (STUDY DU, 175, 437.5, 875 UG/KG/D ON DAYS 1 (1/7 TOTAL DOSE), 8 (2/7 TOTAL DOSE), AND 15 (4/7 TOTAL DOSE) AFTER BIRTH (STUDY DU, Tumor Site: Type of Lesion: LUNG: ADENOMA OR ADENOCARCINOMA) was “active; positive”.
Take `COP(=S)(OC)SCn1nnc2ccccc2c1=O`: the carcinogen call reads like this: (Species: MOUSE, Strain/Sex: B6C3F1/FEMALE, Route: ORAL, 62.5, 125 PPM IN DIET FOR 80 WK (STUDY DURATION: 92-93 WK), 62.5, 125 PPM IN DIET FOR 80 WK (STUDY DURATION: 92-93 WK)) “inactive; negative”; (Species: MOUSE, Strain/Sex: B6C3F1/MALE, Route: ORAL, 31.3, 62.5 PPM IN DIET FOR 80 WK (STUDY DURATION: 92-93 WK), 31.3, 62.5 PPM IN DIET FOR 80 WK (STUDY DURATION: 92-93 WK)) “inactive; negative”; (Species: RAT, Strain/Sex: OSBORNE-MENDEL/FEMALE, Route: ORAL, 62.5, 125 PPM IN DIET FOR 80 WK (STUDY DURATION: 114-115 WK), 62.5, 125 PPM IN DIET FOR 80 WK (STUDY DURATION: 114-115 WK)) “inactive; negative”; (Species: RAT, Strain/Sex: OSBORNE-MENDEL/MALE, Route: ORAL, 78, 156 PPM IN DIET FOR 80 WK (STUDY DURATION: 114-115 WK), 78, 156 PPM IN DIET FOR 80 WK (STUDY DURATION: 114-115 WK), Tumor Site: Type of Lesion: THYROID GLAND: TUMOR, PANCREAS: ISLET CELL ADENOMA OR CARCINOMA) “equivocal”; (Species: Rat, Strain/Sex: Wistar/Female, Route: Oral, 15, 45 ppm (vehicle= 1% DAB8 peanut oil) in feed for 24 mo., 15, 45 ppm (vehicle= 1% DAB8 peanut oil) in feed for 24 mo.) “inactive; negative; purity = 87.2%”; (Species: Rat, Strain/Sex: Wistar/Male, Route: Oral, 15, 45 ppm (vehicle= 1% DAB8 peanut oil) in feed for 24 mo., 15, 45 ppm (vehicle= 1% DAB8 peanut oil) in feed for 24 mo.) “inactive; negative; purity = 87.2%”.
On to `O=CC=O`, for which, for the setting “Species: MOUSE, Strain/Sex: CD-1/FEMALE, Route: DERMAL, 50 UMOL/O.1 ML DMSO 2/WK FOR 5 WK FOLLOWED 1 WK LATER BY 0.1 ML ACETONE 2/WK FOR 47 WK (STUDY DURATION: 52 WK)”, the carcinogen call was “inactive; negative”.
